We go through six molecules from patent US9079891B2, “Compounds that modulate intracellular calcium” (CALCIMEDICA, INC., priority 2010, dated 2015).

Experiment [1] addresses T1, recombinant human STIM1 and Orai1 (Homo sapiens, UniProt Q96D31).
T1 construct: c-myc (C); expressed in transfected cells; host or cells: HEK-293 cells stably expressing human STIM1 and human Orai1
Put plainly: Fluorescence-based assay of store-operated calcium entry in Orai1/STIM1 stable cells (FLIPR). Format: cell-based. To be noted: HEK-293 cells stably expressing human Orai1/STIM1; Fluo-4; Peak-Basal signal; read-out: FLIPR_CRAC: 9 point CRC: O1S1_JR251: IC50: Peak_over_Basal. As for the experimental part: A. Fluorescence-Based Assay of Store-Operated Calcium Entry in Orai1/Stim1 Stable Cells.
Cells stably expressing recombinant human STIM1 and Orai1 are generated by transfecting a human Orai1 expression plasmid (pcDNA3.1-Orai1-cmyc) into HEK-293 cells stably overexpressing human STIM1 (Roos et al. 2005 JCB 169(3): 435-445). Colonies of cells stably expressing both STIM1 and Orai1 proteins are selected and then subcloned by limiting dilution. Cells were cultured at 37° C./6% CO2 in complete medium with 10% FBS and appropriate selection markers.
The day prior to performing the assay Orai1/STIM1 stable cells are plated in 50 μL of complete medium at 90-95% confluence in a 384 well plate. Cells are grown at 37° C./6% CO2 overnight. On the day of the assay, 1.5 μM fluo-4-AM (Invitrogen) in complete medium is added to the cells, which are then incubated for 1 hour at RT. Cells are washed once in Ca^2+-free HBSS (Hank's buffered saline solution) and 35 μl of Ca^2+-free HBSS is added to each well. Test compounds are added to wells in a 10 μL Ca^2+-free HBSS solution, prepared at 4.5× the desired final concentration, and incubated for 30 minutes at RT. The initial baseline fluorescence signal is then measured with a FLIPR^384 (Molecular Devices) plate reader. Calcium entry is initiated by adding 5 μl of 10×CaCl2 (10 mM) in HBSS, and changes in cellular fluorescence are measured with the FLIPR^384 plate reader. In each well, the magnitude of the fluorescence signal as a result of calcium entry into the cell is determined by calculating the difference between the peak fluorescence signal measured after calcium addition and the initial baseline fluorescence signal (designated Peak-Basal). IC50 values are typically calculated as the concentration that inhibited 50% of the Peak-Basal signal.

For the next experiment, the system named is RBL-2H3 cells. Put plainly: Fluorescence-based assay of store-operated calcium entry in RBL-2H3 cells (FLIPR, thapsigargin). It counts as cell-based, rat. To be noted: Rattus norvegicus, Fluo-4, Upslope 0-7 sec, read-out: FLIPR_CRAC: 9 pt CRC - Fluo4_TG-D: RBL-2H3: IC50: Upslope 0-7 sec. As for the experimental part: B. Fluorescence-Based Assay of Store-Operated Calcium Entry in RBL-2H3 Cells.
RBL-2H3 cells are obtained from ATCC and maintained in complete medium with 10% FBS at 37° C./6% CO2.
The day prior to performing the assay, RBL-2H3 cells are plated in 50 μl of complete medium in a 384 well plate. Cells are grown at 37° C./6% CO2 overnight and grow to 50-60% confluence by the next day. On the assay day, 1.5 μM Fluo-4-AM dye (Invitrogen) in complete medium is added and incubated for 1 hour at RT. Cells are washed twice in Ca^2+-free HBSS buffer and 35 μl Ca^2+-free HBSS buffer is added to each well. 10 μl of a test compound prepared in a Ca^2+-free HBSS solution at 4.5× of the desired concentration is added to a well and incubated for 5 minutes at RT. 10 μl of thapsigargin prepared in a Ca^2+-free HBSS solution at 5.5× of the desired concentration (5.5 uM) is added to each well and incubated for an additional 25 minutes. The initial baseline fluorescence signal is measured with a FLIPR^384 (Molecular Devices) plate reader. 5 μl of 12× calcium in HBSS (12 mM) is added and changes in cellular fluorescence are measured with the FLIPR^384 plate reader. In each well, the change in the fluorescent signal as a function of time due to calcium entry into the cell is determined by calculating the difference between the fluorescent signal measured 7 seconds after calcium addition and the initial baseline fluorescence signal at time zero (t=0). This parameter is designated Upslope. The IC50 value is calculated as the concentration at which 50% of the Upslope is inhibited.

Experiment [2] has as its system secreted IL-2 in Jurkat T cells. The experiment is described as follows: In vitro assay of cytokine (IL-2) release from T cells. Format: cell-based. To be noted: Homo sapiens; Jurkat E6-1 cells; PHA/TPA stimulation 20 hours; IL-2 ELISA. As for the experimental part:
In Vitro Assay of Cytokine Release from T Cells
Jurkat E6-1 cells are obtained from ATCC and maintained in complete medium with 10% FBS at 37° C./6% CO2.
The day prior to performing the assay, Jurkat T cells are plated in 90 μL of HBSS Buffer with 1.8 mM CaCl2 and 1.75% fetal bovine serum (FBS) in a 96 well plate at a density of 1.5×10^5 cells/well for 3 hours. 10 μl of 10× test compound prepared in HBSS is added and incubated for 10 minutes at 37° C./6% CO2. Cells are stimulated by the addition of 10 μl of 11×PHA/TPA (27.5 μg/mL PHA/880 nM TPA) and incubated at 37° C./6% CO2 for 20 hours. On the following day, the supernatants are collected and assayed for IL-2 levels by ELISA according to the manufacturer's protocols. The IC50 value is calculated as the concentration at which 50% of secreted IL-2 in vehicle treated cells is inhibited.
For orientation: ELISA stands for enzyme-linked immunosorbent assay.

T1 sequence (Q96D31 whole entry): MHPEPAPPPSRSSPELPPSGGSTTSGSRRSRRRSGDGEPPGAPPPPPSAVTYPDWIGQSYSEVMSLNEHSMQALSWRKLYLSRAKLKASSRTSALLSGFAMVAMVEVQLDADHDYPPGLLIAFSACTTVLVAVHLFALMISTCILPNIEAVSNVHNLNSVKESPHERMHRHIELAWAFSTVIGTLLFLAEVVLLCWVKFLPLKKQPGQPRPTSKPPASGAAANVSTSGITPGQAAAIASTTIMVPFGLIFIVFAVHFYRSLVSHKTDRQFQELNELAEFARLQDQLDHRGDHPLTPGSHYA

As for `Cn1nc(-c2ccco2)cc1-c1ccc(C(=O)Nc2c(F)cccc2F)s1` [Example 56, N-(2,6-difluorophenyl)[5-(3-(2-furyl)-1-methylpyrazol-5-yl](2-thienyl)]carboxamide], the figures for the IC50 (in experiment [1]; in the experiment with RBL-2H3 cells; in experiment [2]) were below 0.6 µM, below 0.6 µM and below 0.05 µM, respectively.
On to `Cn1nc(-c2ccco2)cc1-c1ccc(C(=O)Nc2ccccc2F)s1` [Example 61], for which the figures for the IC50 (in experiment [1]; in the experiment on RBL-2H3 cells; in experiment [2]) were below 0.6 µM, below 0.6 µM and below 0.05 µM, respectively.
For the molecule `Cn1nc(C(F)(F)F)cc1-c1ccc(NC(=O)c2c(F)cccc2F)s1` [Example 74, (2,6-difluorophenyl)-N-{5-[1-methyl-3-(trifluoromethyl)pyrazol-5-yl](2-thienyl)}carboxamide], the IC50 (as a rule, the concentration at which inhibition is half-maximal) was below 0.6 µM in experiment [1], below 0.6 µM in the experiment on RBL-2H3 cells and below 0.05 µM in experiment [2].
Turning to `Cc1cc2c(cc1-c1cnc(NC(=O)c3ccncc3F)s1)OC(F)(F)O2` [Example 82], the IC50 is below 0.6 µM in experiment [1], below 0.6 µM in the experiment with RBL-2H3 cells and below 0.05 µM in experiment [2].
`Cc1cc2c(cc1-c1cnc(NC(=O)c3c(F)cccc3F)s1)OC(F)(F)O2` [Example 83, (2,6-difluorophenyl)-N-[5-(2,2-difluoro-6-methylbenzo[d]1,3-dioxolen-5-yl)(1,3-thiazol-2-yl)]carboxamide]: the values for the IC50 (in experiment [1]; with RBL-2H3 cells; in experiment [2]) were above 1.2 µM, below 0.6 µM and below 0.05 µM, respectively.
The matching figures for `Cc1cc2c(cc1-c1cnc(NC(=O)c3ccccc3F)s1)OC(F)(F)O2` [Example 84]: below 0.6 µM, below 0.6 µM and below 0.05 µM.
